Read-outs that look alike come from different tables or passages of the source.

Experiment [1] addresses T1, LOX4 (Arabidopsis thaliana, UniProt Q9FNX8).
T1 sequence (Q9FNX8 71-926): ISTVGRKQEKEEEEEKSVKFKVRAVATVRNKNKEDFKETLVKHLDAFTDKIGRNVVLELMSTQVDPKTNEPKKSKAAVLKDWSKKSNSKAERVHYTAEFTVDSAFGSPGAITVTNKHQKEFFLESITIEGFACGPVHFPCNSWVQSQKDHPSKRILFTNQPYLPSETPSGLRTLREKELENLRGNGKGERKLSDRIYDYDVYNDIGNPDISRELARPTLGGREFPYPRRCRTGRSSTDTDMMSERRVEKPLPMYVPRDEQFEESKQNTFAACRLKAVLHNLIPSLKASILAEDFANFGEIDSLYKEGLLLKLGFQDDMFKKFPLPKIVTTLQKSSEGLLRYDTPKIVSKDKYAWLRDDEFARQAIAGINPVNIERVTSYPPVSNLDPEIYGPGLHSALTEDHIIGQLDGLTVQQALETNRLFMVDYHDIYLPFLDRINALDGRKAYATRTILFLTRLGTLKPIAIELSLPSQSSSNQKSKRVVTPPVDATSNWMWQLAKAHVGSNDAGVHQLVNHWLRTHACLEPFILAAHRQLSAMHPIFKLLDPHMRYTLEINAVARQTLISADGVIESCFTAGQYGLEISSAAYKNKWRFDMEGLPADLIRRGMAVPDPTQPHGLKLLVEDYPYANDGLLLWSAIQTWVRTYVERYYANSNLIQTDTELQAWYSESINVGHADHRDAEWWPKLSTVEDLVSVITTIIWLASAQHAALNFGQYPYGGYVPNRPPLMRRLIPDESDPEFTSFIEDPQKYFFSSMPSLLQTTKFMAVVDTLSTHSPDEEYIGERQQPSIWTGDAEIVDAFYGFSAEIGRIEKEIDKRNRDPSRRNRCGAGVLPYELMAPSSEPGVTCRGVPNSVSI
Kind of experiment: LOX4 activity, oxygen electrode (polarography). In kind it is biochemical. Details: made in house; host or cells: E. coli Nico21(DE3), pET15b. Conditions: for Relative Activity (%) LOX4: 1 mM metal salt, LeA 30 µM in 20 mM HEPES pH 8.0, oxygen consumption vs control without metal.

The subject of experiment [2] is AOC. Details: method as in PMID 12223729. To be noted: cited from earlier work.
The target in experiment [3] is T2, LOX2 (Arabidopsis thaliana, UniProt P38418).
T2 sequence (P38418 71-896): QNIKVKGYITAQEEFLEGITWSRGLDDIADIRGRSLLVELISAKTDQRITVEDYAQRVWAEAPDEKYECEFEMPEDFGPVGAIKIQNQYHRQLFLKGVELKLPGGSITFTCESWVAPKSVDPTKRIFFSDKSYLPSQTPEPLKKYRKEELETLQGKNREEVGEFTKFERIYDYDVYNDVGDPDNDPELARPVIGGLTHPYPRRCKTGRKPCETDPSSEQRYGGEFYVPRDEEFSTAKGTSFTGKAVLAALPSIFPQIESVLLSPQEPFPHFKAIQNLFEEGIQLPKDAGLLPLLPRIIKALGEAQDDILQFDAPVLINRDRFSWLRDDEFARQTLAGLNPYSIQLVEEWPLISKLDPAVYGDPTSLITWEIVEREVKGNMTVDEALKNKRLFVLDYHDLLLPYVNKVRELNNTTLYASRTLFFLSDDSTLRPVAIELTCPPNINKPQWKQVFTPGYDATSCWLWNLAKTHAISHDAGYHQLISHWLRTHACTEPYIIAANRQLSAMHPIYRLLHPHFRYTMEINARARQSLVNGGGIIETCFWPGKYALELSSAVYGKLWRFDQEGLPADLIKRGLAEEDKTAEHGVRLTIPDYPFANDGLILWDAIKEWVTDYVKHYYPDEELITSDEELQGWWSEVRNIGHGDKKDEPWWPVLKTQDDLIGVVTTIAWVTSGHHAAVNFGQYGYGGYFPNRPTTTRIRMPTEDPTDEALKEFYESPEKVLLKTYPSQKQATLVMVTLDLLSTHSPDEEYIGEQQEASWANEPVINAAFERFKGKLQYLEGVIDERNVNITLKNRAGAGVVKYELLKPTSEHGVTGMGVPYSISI
Kind of experiment: Intrinsic fluorescence of LOX2. The class given is binding. More on the design: made in house; host or cells: E. coli Nico21(DE3), pET15b. Conditions: as Figure 5B; for Emission maximum: control 336.5±0.6, in nm (unit assumed); for Relative fluorescence intensity at emission maximum: λExc = 280 nm, control 125.5±2.0. The method, then:
Figure 5 Analysis of the interaction of 12-OPDA and MJ with LOX4. […] LOX4 (0.22 µg/µL) was incubated with compounds at indicated concentrations for 10 min at 30 °C, and residual LOX activity was measured spectrophotometrically by the injection of 3 µL incubation mixture into 123 µL LeA (4.8 µM in 50 mM Tris-HCl, pH 7.2). […] (B) Intrinsic fluorescence of LOX4 incubated with 12-OPDA, MJ and solvent (control). Here, 120 µL LOX4 (0.2 µg/µL) was mixed with 15 µL chemical (1.4 mM in 50 mM K-Pi, pH 8.0) or solvent (control) and analyzed for intrinsic fluorescence emission after excitation at λExc = 280 nm. Mean graphs are shown (n = 4).
Int. J. Mol. Sci. 2021, 22, x FOR PEER REVIEW 11 of 17
Figure S7. Interaction and activity studies of LOX2, LOX3 and LOX6. (A) LOX2, LOX3 and LOX6 activities in presence of increasing amounts of MJ and 12-OPDA. Analysis was performed as described for IC50 determination of LOX4 (see Figure 5A). 100% activity […]
(B) Intrinsic fluorescence of LOX2 and LOX3 incubated with 12-OPDA, MJ and solvent control. Analysis was performed as in Figure 5B. […]

The target in experiment [4] is T1, LOX4. Kind of experiment: LOX4 activity, oxygen electrode (polarography). In kind it is biochemical. Details: made in house; host or cells: E. coli Nico21(DE3), pET15b. Conditions: enzyme incubated with 280 µM chemical (1/10 vol of 2.8 mM), injected into 30 µM LeA, 50 mM Tris-HCl pH 7.2; vs solvent control; read-out: Polarography Relative Activity (%) LOX4.
Where [5] appears, read: 12.2 µg LOX4 + 1.3 mM GSH prior to 140 µM 12-OPDA.
The mark [6] stands for this setting: doubled LOX4 concentration + 1.3 mM GSH + 140 µM 12-OPDA.

In the case of `O=S(=O)([O-])[O-].[Cd+2]` [CdSO4], in experiment [1], the “Relative Activity (%) LOX4” value is recorded as “no activity”.

For the molecule `CCC=CCC1C(=O)C=CC1CCCCCCCC(=O)O` (stereo not drawn) [12-OPDA, cis-(+)-12-oxophytodienoic acid], in experiment [2] (0.5 mM), the “Sensitivity of AOC” value was “insensitivity”. Besides, the “Residual LOX4 activity” value in experiment [1] (12.2 µg LOX4 + 140 µM 12-OPDA alone) worked out at 29.6%; in experiment [1] (setting [5]), 36.7%; in experiment [1] (doubled LOX4 concentration + 140 µM 12-OPDA) it was 34%; in experiment [1] (setting [6]), 45.7%. The “Oxygen consumption (residual LOX4 activity)” value turned out to be 2.9 ± 0.1 nmol/mL/min in experiment [1] (12.2 µg LOX4 + 140 µM 12-OPDA alone, control 9.8 ± 0.1); 3.6 ± 0.1 nmol/mL/min in experiment [1] (setting [5]); 6.7 ± 0.1 nmol/mL/min in experiment [1] (doubled LOX4 concentration + 140 µM 12-OPDA, control 19.7 ± 0.1); 9.0 ± 0.1 nmol/mL/min in experiment [1] (setting [6]); 8.5 ± 0.6 nmol/mL/min in experiment [1] (doubled LOX4 concentration + 2.6 mM GSH + 140 µM 12-OPDA). Moreover, in experiment [3], the Emission maximum worked out at 337.2±0.3. The “Relative fluorescence intensity at emission maximum” value in experiment [3] came out at 117.5±2.0. In experiment [4], the activity at 280 µM turned out to be 21 ± 5%.

Turning to `O=C(O)c1ccccc1O` [SA, salicylic acid], in experiment [4], the activity at 280 µM came out at 101 ± 4%.

Take `[Ca+2].[Cl-].[Cl-]` [CaCl2]: the “Sensitivity of AOC” value in experiment [2] (1.0 mM) is listed as “insensitivity”. Moreover, in experiment [1], the “Relative Activity (%) LOX4” value is 100 ± 4%.

As to `CC/C=C\CC1C(=O)CCC1CC(=O)OC` (stereo not drawn) [MJ, methyl jasmonate], in experiment [3], the Emission maximum was 337.3±0.6 and the “Relative fluorescence intensity at emission maximum” value is listed as 119.7±2.7. For the same molecule, in experiment [4], the activity at 280 µM was determined as 95 ± 3%.

For the molecule `[Cl-].[Cl-].[Mg+2]` [MgCl2], the “Sensitivity of AOC” value in experiment [2] (1.0 mM) is “insensitivity”. In addition, the “Increase of LOX4 activity in comparison to control” value in experiment [1] (1 mM cation, LeA 30 µM, pH 8.0) stood at 6%. In experiment [1], the “Relative Activity (%) LOX4” value is on record as 106 ± 3%.

Turning to `O=C(O)/C=C/CCCCCCCCC(=O)O` [TA, traumatic acid], the activity at 280 µM in experiment [4] was determined as 100 ± 9%.

The values above are taken from paper PMC8508710, “Biochemical Characterization of 13-Lipoxygenases of Arabidopsis thaliana” (International Journal of Molecular Sciences, 2021).
